Measurements as given in US8324190B2, “Treatment of proliferative disorders with amino-substituted (E)-2,6- dialkoxystyryl 4-substituted benzylsulfones” (Temple University—Of The Commonwealth System of Higher …, priority 2002, dated 2012).
Where a name gives a salt, the structure may show the parent alone.

Columns and labels:
Assay in all cases: Tumor cell viability assay, Trypan blue exclusion
Assay type in all cases: cell-based
Settings in all cases: cell viability after 96 hours
[1] = test system: breast adenocarcinoma cell line BT-20
Method: (§1) BT-20 is an estrogen-unresponsive cell line. NIH/3T3 and HFL are normal murine and human fibroblasts, respectively. BT-20, DLD-1 and H157 were grown in Dulbecco's modified Eagle's medium (DMEM) containing 10% fetal bovine serum supplemented with penicillin and streptomycin. DU145 was cultured in RPMI with 10% fetal bovine serum containing penicillin and streptomycin. NIH3T3 and HFL cells were grown in DMEM containing 10% calf serum supplemented with penicillin and streptomycin. Cells were plated at density levels of 1.0×10^5 cells per well in six-well plates. Cell cultures were maintained at 37° C. in a humidified atmosphere of 5% CO2. Cells were treated with compounds of the invention at various concentrations. Cell viability was determined after 96 hours by the Trypan blue exclusion method. […] The number of viable cells remaining after 96 hours of treatment was determined using hemacytometer following trypan blue staining. The number of viable cells has been plotted as the percent of Vehicle treated (control) cells.

[2] = test system: colorectal carcinoma cell line DLD-1
Method: as §1

[3] = test system: non-small cell lung carcinoma cell line H157
Method: as §1

[4] = test system: prostate carcinoma cell line DU-145
Method: as §1

Measured: IC50

COc1cc(OC)c(/C=C/S(=O)(=O)Cc2ccc(OC)c(NC(=O)C[n+]3ccccc3)c2)c(OC)c1 [Example 25, (E)-2,4,6-trimethoxystyryl-3-(pyridinium-1-yl)acetamido-4-methoxybenzylsulfone]
< 10 µM: all assays above

COc1cc(OC)c(/C=C/S(=O)(=O)Cc2ccc(OC)c(NC(=O)COC(C)=O)c2)c(OC)c1 [Example 26, (E)-2,4,6-trimethoxystyryl-3-(acetoxyacetamido)-4-methoxy-benzylsulfone]
< 10 µM: all assays above

COc1cc(OC)c(/C=C/S(=O)(=O)Cc2ccc(OC)c(NC(=O)C(C)O)c2)c(OC)c1 (stereo not drawn) [Example 27, (E)-2,4,6-Trimethoxystyryl-3-(2-hydroxypropionamido)-4-methoxy benzylsulfone]
< 10 µM: all assays above

CC[N+](CC)(CC)CC(=O)Nc1cc(CS(=O)(=O)/C=C/c2c(OC)cc(OC)cc2OC)ccc1OC [Example 28, (E)-2,4,6-trimethoxystyryl-3-(triethylammoniumacetamido)-4-methoxybenzylsulfone]
< 10 µM: all assays above

COc1cc(OC)c(/C=C/S(=O)(=O)Cc2ccc(OC)c(NC(=O)C[N+](CCO)(CCO)CCO)c2)c(OC)c1 [Example 29, (E)-2,4,6-trimethoxystyryl-3-[tri-(2-hydroxyethyl)ammonium]-acetamido-4-methoxybenzylsulfone]
< 10 µM: all assays above

COc1cc(OC)c(/C=C/S(=O)(=O)Cc2ccc(OC)c(NC(=O)C(C)(C)O)c2)c(OC)c1 [Example 30, (E)-2,4,6-trimethoxystyryl-3-(2-methyl-2-hydroxypropion-amido)-4-methoxybenzylsulfone]
< 10 µM: all assays above

COc1cc(OC)c(/C=C/S(=O)(=O)Cc2ccc(OC)c(NC(=O)C(C)(C)OC(C)=O)c2)c(OC)c1 [Example 31, (E)-2,4,6-trimethoxystyryl-3-(2-methyl-2-acetoxypropionamido)-4-methoxybenzyl-sulfone]
< 10 µM: all assays above

COc1cc(OC)c(/C=C/S(=O)(=O)Cc2ccc(OC)c(NC(=O)C(F)(F)F)c2)c(OC)c1 [Example 32, (E)-2,4,6-trimethoxystyryl-3-(trifluoroacetamido)-4-methoxy-benzylsulfone]
< 10 µM: all assays above

COc1cc(OC)c(/C=C/S(=O)(=O)Cc2ccc(OC)c(NS(=O)(=O)C(F)(F)F)c2)c(OC)c1 [Example 33, (E)-2,4,6-trimethoxystyryl-3-(trifluoromethanesulfonamido)-4-methoxy-benzylsulfone]
< 10 µM: all assays above

COc1cc(OC)c(/C=C/S(=O)(=O)Cc2ccc(OC)c(NC(=O)CCC(=O)O)c2)c(OC)c1 [Example 34, (E)-2,4,6-trimethoxystyryl-3-(succinamido)-4-methoxybenzyl-sulfone]
< 10 µM: all assays above

COc1cc(OC)c(/C=C/S(=O)(=O)Cc2ccc(OC)c(NC(=O)CC(Cl)C(=O)O)c2)c(OC)c1 (stereo not drawn) [Example 35, (E)-2,4,6-trimethoxystyryl-3-(3-chlorosuccinamido)-4-methoxy-benzylsulfone]
< 10 µM: all assays above

COc1cc(OC)c(/C=C/S(=O)(=O)Cc2ccc(OC)c(NC(=O)COC(=O)CCC(=O)O)c2)c(OC)c1 [Example 36, (E)-2,4,6-trimethoxystyryl-3-[3-(3-carboxypropanoyloxy)-acetamido]-4-methoxybenzylsulfone]
< 10 µM: all assays above

COc1cc(OC)c(/C=C/S(=O)(=O)Cc2ccc(OC)c(NC(=O)CCCC(=O)O)c2)c(OC)c1 [Example 37, (E)-2,4,6-trimethoxystyryl-3-(glutaramido)-4-methoxybenzyl-sulfone]
< 10 µM: all assays above

COc1cc(OC)c(/C=C/S(=O)(=O)Cc2ccc(OC)c(NC(=O)CP(=O)(O)O)c2)c(OC)c1 [Example 38, (E)-2,4,6-trimethoxystyryl-3-(phosphonatoacetamido)-4-methoxybenzylsulfone, disodium salt]
< 10 µM: all assays above

COc1cc(OC)c(/C=C/S(=O)(=O)Cc2ccc(OC)c(NCCCC(=O)O)c2)c(OC)c1 [Example 39, (E)-2,4,6-trimethoxystyryl-3-(3-carboxypropylamino)-4-methoxybenzylsulfone]
< 10 µM: all assays above

COc1cc(OC)c(/C=C/S(=O)(=O)Cc2ccc(OC)c(NCCC(=O)O)c2)c(OC)c1 [Example 40, (E)-2,4,6-trimethoxystyryl-3-(2-carboxyethylamino)-4-methoxy-benzylsulfone]
< 10 µM: all assays above

COC(=O)Nc1cc(CS(=O)(=O)/C=C/c2c(OC)cc(OC)cc2OC)ccc1OC [Example 41, (E)-2,4,6-trimethoxystyryl-3-(methoxycarbonylamino)-4-methoxy-benzylsulfone]
< 10 µM: all assays above

COc1ccc(S(=O)(=O)Nc2cc(CS(=O)(=O)/C=C/c3c(OC)cc(OC)cc3OC)ccc2OC)cc1 [Example 42, (E)-2,4,6-trimethoxystyryl-3-(4-methoxybenzenesulfamyl)-4-methoxybenzylsulfone]
< 10 µM: all assays above

COc1cc(OC)c(/C=C/S(=O)(=O)Cc2ccc(OC)c(NC(=O)C(C)OC(C)=O)c2)c(OC)c1 (stereo not drawn) [Example 43, (E)-2,4,6-trimethoxystyryl-3-(2-acetoxypropionamido)-4-methoxybenzylsulfone]
< 10 µM: all assays above

COC(=O)CCC(=O)Nc1cc(CS(=O)(=O)/C=C/c2c(OC)cc(OC)cc2OC)ccc1OC [Example 44, (E)-2,4,6-trimethoxystyryl-3-(methylsuccinamido)-4-methoxy-benzylsulfone]
< 10 µM: all assays above

COc1cc(OC)c(/C=C/S(=O)(=O)Cc2ccc(OC)c(NC(=O)C(F)(F)C(F)(F)F)c2)c(OC)c1 [Example 46, (E)-2,4,6-trimethoxystyryl-3-(pentafluoropropionamido)-4-methoxybenzylsulfone]
< 10 µM: all assays above

COC(=O)C(F)(F)C(=O)Nc1cc(CS(=O)(=O)/C=C/c2c(OC)cc(OC)cc2OC)ccc1OC [Example 47, (E)-2,4,6-trimethoxystyryl-3-(methyl-2,2-difluoromalonamido)-4-methoxybenzylsulfone]
< 10 µM: all assays above

COc1cc(OC)c(/C=C/S(=O)(=O)Cc2ccc(OC)c(NC(=O)C(F)(F)C(F)(F)C(=O)O)c2)c(OC)c1 [Example 48, (E)-2,4,6-Trimethoxystyryl-3-(2,2,3,3,tetrafluorosuccinamido)-4-methoxybenzylsulfone]
< 10 µM: all assays above

COc1cc(OC)c(/C=C/S(=O)(=O)Cc2ccc(OC)c(NC(=O)CN)c2)c(OC)c1 [Example 49, (E)-2,4,6-Trimethoxy-styryl-3-(aminoacetamido)-4-methoxy-benzylsulfone, hydrochloride]
< 10 µM: all assays above
